Test [1] deals with T1, PYR1 (Arabidopsis thaliana, UniProt O49686).
T1 sequence (O49686 1-191): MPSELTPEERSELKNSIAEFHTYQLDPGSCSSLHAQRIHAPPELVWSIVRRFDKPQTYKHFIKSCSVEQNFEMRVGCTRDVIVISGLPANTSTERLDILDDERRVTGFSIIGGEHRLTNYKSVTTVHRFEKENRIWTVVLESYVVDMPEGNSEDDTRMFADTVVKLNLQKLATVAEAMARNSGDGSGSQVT
The test is described as follows: biochemical. To be noted: read-out: ITC/Kd/μM. On the set-up: Isothermal titration calorimetry of compound binding to PYR1. Here is the method: (§1) To validate the practicality of GhitFluors platform for global high‐throughput identification of ABA receptor modulators, we used this platform to analyze a library comprising several hundreds‐amide compounds. First, we evaluated K d values of several hundreds amide‐compounds using fluorescence competition assays. […] Meanwhile, binding affinities of the six compounds to PYR1 were evaluated using ITC or BLI assays to validate the screening results. […] As depicted in Figure 4a, a significant decrease in fluorescence intensity was observed as the concentration of diopyridin increased, ranging from 30 to 350 µM. When the concentration of diopyridin reached 350 µM, fluorescence intensity was close to the threshold. […] In addition, we also tested the binding affinities of diopyridin with other representative PYLs, including dimer (PYL1, PYL2), and monomer (PYL4, PYL5, and PYL10‐PYL12) that had K d values ranging from 0.97 to 32.8 µM, and 1.6 to 243.7 µM, respectively (Figure S20, Supporting Information).

In test [2] the target is T1, PYR1. The test is described as follows: biochemical. On the set-up: Fluorescence competition displacing lebactin (1 uM) from PYR1 (8 uM); Kd from double-log titration fit. To be noted: 1 uM lebactin, 8 uM PYR1; read-out: F(GhitFluors)/Kd/μM.
Source text: as §1, with “Validation of the Fluorescent Chemosensor‐Based Screening Platform In‐house Chemical Database Screening Assay To” for “To”

Test [3] has as its target T1, PYR1. As to the kind of experiment: biochemical. On the set-up: Bio-layer interferometry of compound binding to PYR1. Conditions: read-out: BLI/Kd/μM. How it is done:
To validate the practicality of GhitFluors platform for global high‐throughput identification of ABA receptor modulators, we used this platform to analyze a library comprising several hundreds‐amide compounds. First, we evaluated K d values of several hundreds amide‐compounds using fluorescence competition assays. […] Meanwhile, binding affinities of the six compounds to PYR1 were evaluated using ITC or BLI assays to validate the screening results. […] As depicted in Figure 4a, a significant decrease in fluorescence intensity was observed as the concentration of diopyridin increased, ranging from 30 to 350 µM. When the concentration of diopyridin reached 350 µM, fluorescence intensity was close to the threshold. […] It should have a low fluorescence background, high fluorescence shift and stability, and appropriate binding affinity, as these determine the accuracy, feasibility and, the sensitivity of this platform, respectively. […] First, we evaluated the fluorescence background of all chemosensors by using 310–370 nm as excitation wavelength. […] In addition, the binding affinity of compound 1a (lebactin) for PYR1 was evaluated by bio‐layer interferometry (BLI). […]

Test [4] concerns the target T2, PYR-HAB1 (PYR1 with HAB1) (Arabidopsis thaliana, UniProt O49686).
T2 construct: HAB1 construct not described in main text; with Protein phosphatase 2C 16
T2 sequence (O49686 1-191): T1 sequence (O49686 1-191)
T2 sequence (Q9CAJ0 1-511 partner): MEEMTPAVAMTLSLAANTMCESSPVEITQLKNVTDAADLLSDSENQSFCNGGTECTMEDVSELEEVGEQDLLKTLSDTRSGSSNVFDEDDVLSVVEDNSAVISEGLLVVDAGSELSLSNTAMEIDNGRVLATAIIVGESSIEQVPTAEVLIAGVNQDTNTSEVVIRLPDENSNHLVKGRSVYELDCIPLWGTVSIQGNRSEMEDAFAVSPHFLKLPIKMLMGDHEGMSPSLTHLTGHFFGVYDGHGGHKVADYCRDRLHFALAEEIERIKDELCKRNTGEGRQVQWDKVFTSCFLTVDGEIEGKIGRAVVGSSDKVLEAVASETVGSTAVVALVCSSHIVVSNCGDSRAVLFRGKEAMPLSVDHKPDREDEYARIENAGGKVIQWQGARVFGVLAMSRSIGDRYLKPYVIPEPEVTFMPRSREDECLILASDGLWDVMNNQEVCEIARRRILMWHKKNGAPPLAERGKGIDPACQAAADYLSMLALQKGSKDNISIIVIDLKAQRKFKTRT
As to the kind of experiment: Ser/Thr phosphatase assay (Promega), HAB1 inhibition via PYR1. It counts as biochemical.

Like-named read-outs stand apart in the source and are kept apart here. Some results are limits rather than exact numbers.

`CC(C)(C)c1ccc(S(=O)(=O)Nc2c([N+](=O)[O-])cc(Br)cc2[N+](=O)[O-])cc1` [145a, N-(4-bromo-2,6-dinitrophenyl)-4-(tert-butyl)benzenesulfonamide]: the Kd on PYR1 [1] amounted to 171 ± 3.76 µM; on PYR1 [2], 37.8 ± 1.31 µM.
For the compound `COc1ccc(C(=O)Nc2cccc3c2C(=O)N(C2CCC(=O)NC2=O)C3=O)cc1OC` (centres unmarked) [173b, N-(2(2,6-dioxopiperidin-3-yl)-1,3-dioxoisoindolin-4-yl)-3,4-dimethoxybenzamide], the Kd at PYR1 [3] came to 9.5 ± 0.75 µM; on PYR1 [2] it was 1.55 ± 0.11 µM.
The inhibition is the relative decrease from the control value, in per cent. Consider `COc1ccc(C(=O)Nc2cccc3c2C(=O)N(C2CCC(=O)NC2=O)C3=O)cc1OC` (centres unmarked) [173b, diopyridin], for which, in test [4], the inhibition at 50 µM is greater than 80%.
On to `O=[N+]([O-])c1cc(Br)cc([N+](=O)[O-])c1NS(=O)(=O)c1cccc(F)c1` [260a, N-(4-bromo-2,6-dinitrophenyl)-3-fluorobenzenesulfonamide], for which the results for the Kd at PYR1 [1] and on PYR1 [2] were 7.59 ± 1.62 µM and 3.96 ± 0.4 µM, respectively.
For `O=[N+]([O-])c1cc(Br)cc([N+](=O)[O-])c1NS(=O)(=O)c1cccc(Cl)c1` [361a, N-(4-bromo-2,6-dinitrophenyl)-3-chlorobenzenesulfonamide] the same measures were 7.06 ± 1.92 µM and 8.25 ± 0.25 µM.
For `Cc1ccccc1S(=O)(=O)Nc1c([N+](=O)[O-])cc(Br)cc1[N+](=O)[O-]` [368a, N-(4-bromo-2,6-dinitrophenyl)-2-methylbenzenesulfonamide] the same measures were 14.9 ± 3.29 µM and 4.73 ± 0.37 µM.
For `O=[N+]([O-])c1cc(Br)cc([N+](=O)[O-])c1NS(=O)(=O)c1ccccc1Cl` [470a, N-(4-bromo-2,6-dinitrophenyl)-2-chlorobenzenesulfonamide] the same measures were 9.51 ± 2.19 µM and 8.43 ± 0.75 µM.
Consider `CC1=CC(=O)CC(C)(C)[C@@]1(O)/C=C/C(C)=C\C(=O)O` [ABA], for which the inhibition at 25 µM in test [4] is greater than 80%.

Values taken from publication PMC12165062, “High‐Throughput Fluorescence Screening Enables Globally Consistent Identification of ABA Signaling Modulators” (Advanced Science, 2025).
